How the values were obtained:
[1] = test system: metabolism of retinoic acid in human breast cancer cells; assay: Inhibition of retinoic acid (RA) metabolism (Example C.1); type: cell-based; conditions: MCF-7 human breast cancer cells, 3H-RA as substrate, concentration needed to reduce the amount of metabolites to 50% of the control
From the text: The property to delay the metabolism of retinoic acid can be evidenced in various in vitro and in vivo experiments. A particular in vitro procedure is described in example C.1 and tests the inhibitory activity of the compounds of formula (I) on the metabolism of retinoic acid in human breast cancer cells. The compounds of the present invention were also effective in suppressing induced vaginal keratinization effects in ovariectomized rats as is described in example C.2.
Inhibition of Retinoic Acid (RA) Metabolism
MCF-7 human breast cancer cells were grown as stock cultures according to art-known protocols. One day before the experiment, RA is added to the stock cultures to stimulate RA-metabolism. At the start of the experiment, cell suspensions were incubated in a tissue culture medium containing ^3H-RA as the substrate. Different concentrations of the test compound (dissolved in 1% DMSO) were added to the incubation mixtures, and at the end of the incubation, the unmetabolized RA is separated from its polar metabolites. The fraction containing the polar ^3H-labelled metabolites was collected and counted in a scintillation counter. For each experiment, a control and a blank incubation were run in parallel. Table 22 list the IC50 value (defined as the concentration in M needed to reduce the amount of metabolites to 50% of the control).

[2] = test system: Ovariectomized rats; assay: Vaginal keratinization test on ovariectomized rats (Example C.2); type: in vivo; conditions: estradiol undecylate induced keratinization, per os once daily on days 1-3, active dose = 50% of rats show complete suppression
Summary of the method: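 Value is the lowest oral dose (mg/kg) at which half of tested rats show complete suppression of estradiol undecylate-induced vaginal keratinization by histology. Ovariectomized rats received 100 μg/100 g estradiol undecylate s.c., then compound or PEG 200 vehicle p.o. daily for three days; sacrifice one day later.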

IC50 [1] [nM]	IC50 ([1]; MCF7) [nM]	Structure (SMILES)	LAD (lowest active dose) [2] [mg/kg]	minimal effective dose ([2]; Rattus norvegicus, po, read-out: LAD (lowest active dose)) [mg/kg]
1.51	–	CC(C)C(c1ccc(NC(=O)c2ccc3c(c2)OCO3)cc1)n1ccnc1 (racemic) [Compound 232]	>10.00	–
18.2	–	CC(C)C(c1ccc(NC(=O)CC2COc3ccccc3O2)cc1)n1ccnc1 (racemic) [Compound 237]	5.00	–
1.35	–	COCC(C)C(c1ccc(NC(=O)Cc2ccc(OC)c(OC)c2)cc1)n1ccnc1 (racemic) [Compound 404, (±)-(A)-3,4-dimethoxy-N-[4-[1-(1H-imidazol-1-yl)-3-methoxy-2-methylpropyl]phenyl]benzeneacetamide]	5.00	–
616	–	CC(=CC(=O)Nc1ccc(C(c2ccc(Cl)cc2)n2ccnc2)cc1)c1ccccc1 (racemic) [Compound 512]	>20.00	–
3.01	–	CC(C)C(c1ccc(NC(=O)C2=COc3ccccc3O2)cc1)n1ccnc1 (centres unmarked) [Compound 234]	10.00	–
3.07	–	CCC(C(c1ccc(NC(=O)Cc2ccc(OC)c(OC)c2)cc1)n1cncn1)N(C)C (single isomer, unassigned) [Compound 646]	5.00	–
> 100	–	CC(=Cc1ccccc1)C(=O)Nc1ccc(C(C(C)c2ccccc2)n2ccnc2)cc1 (single isomer, unassigned) [Compound 489]	2.50	–
2.59	–	CC(C)C(c1ccc(NC(=O)c2ccc3c(c2)C(C)(C)CCC3(C)C)cc1)n1ccnc1 (racemic) [Compound 252]	>10.00	–
0.188	–	CCC(CC)C(c1ccc(NC(=O)Nc2cc(F)ccc2F)cc1)n1ccnc1 (racemic) [Compound 710]	2.50	–
5.48	–	CC(C)C(C(=O)Nc1ccc(C(C(C)C)n2ccnc2)cc1)c1ccccc1 (racemic) [Compound 658]	>10.00	–
> 1000	–	CC(=O)Nc1ccc(C(c2cccc(C(F)(F)F)c2)n2ccnc2)cc1 (centres unmarked) [Compound 524]	20.00	–
1.18	–	CCC(CC)C(c1ccc(NC(=O)Nc2cccc(F)c2)cc1)n1ccnc1 (racemic) [Compound 724]	2.50	–
1.79	–	CC(C)C(c1ccc(NC(=O)C2Oc3ccccc3O2)cc1)n1ccnc1 (centres unmarked) [Compound 248]	2.50	–
1.34	–	CC(C)C(c1ccc(NC(=O)Cc2ccc3ccccc3c2)cc1)n1ccnc1 (racemic) [Compound 240]	10.00	–
1.16	–	COc1ccc(CC(=O)Nc2ccc(C(n3cncn3)C(C)(C)C)cc2)cc1OC.O (centres unmarked) [Compound 642]	2.50	–
> 1000	–	C/C(=C\c1ccccc1)C(=O)Nc1ccc(C(c2cccnc2)C(C)C)cc1 (racemic) [Compound 679]	>20.00	–
3.37	–	CC(C)C(c1ccc(NC(=O)c2ccc3nccnc3c2)cc1)n1ccnc1 (centres unmarked) [Compound 214]	20.00	–
> 100	–	O=C(Nc1ccc(C(C2CCCCC2)n2ccnc2)cc1)/C(=C/c1ccccc1)c1ccccc1 (racemic) [Compound 468]	10.00	–
3.71	–	CC(C)C(c1ccc(NC(=O)Nc2ccccc2F)cc1)n1ccnc1 (racemic) [Compound 726]	5.00	–
10.5	–	CC(C)C(c1ccc(NC(=O)C=C(c2ccccc2)c2ccccc2)cc1)n1ccnc1 (racemic) [Compound 511]	>20.00	–
> 1000	–	CC(=O)Nc1ccc(C(c2cccc(F)c2)n2cncn2)cc1 (centres unmarked) [Compound 615]	>20.00	–
7.67	–	CC(=Cc1cccc(C(F)(F)F)c1)C(=O)Nc1ccc(C(C(C)C)n2ccnc2)cc1 (racemic) [Compound 578]	>10.00	–
5.62	–	CC(C)C(c1ccc(NC(=O)Cc2ccc(Cl)cc2)cc1)(C(C)C)n1ccnc1 [Compound 763]	>5.00	–
83.4	–	CC(Oc1ccccc1)C(c1ccc(NC(=O)Cc2ccc(Cl)cc2)cc1)n1ccnc1 (single isomer, unassigned) [Compound 370]	>10.00	–
> 100	–	C/C(=C\c1ccccc1)C(=O)Nc1ccc(C(C(C)c2ccccc2)n2ccnc2)cc1 (single isomer, unassigned) [Compound 490]	2.50	–
2.41	–	COc1cccc(NC(=O)Nc2ccc(C(C(C)C)n3ccnc3)cc2)c1 (racemic) [Compound 733]	>10.00	–
> 100	–	CC(C)C(c1ccc(NC(=O)/C(=C/c2ccccc2)C2CCCCC2)cc1)n1ccnc1 (racemic) [Compound 473]	>10.00	–

Second part, the compound before the results:

Structure (SMILES)	IC50 [1] [nM]	IC50 ([1]; MCF7) [nM]	LAD (lowest active dose) [2] [mg/kg]	minimal effective dose ([2]; Rattus norvegicus, po, read-out: LAD (lowest active dose)) [mg/kg]
CC(C)C(c1ccc(NC(=O)C(C)(c2ccccc2)c2ccccc2)cc1)n1ccnc1 (racemic) [Compound 189]	> 100	–	>10.00	–
CCOc1ccc(CC(=O)Nc2ccc(C(C(CC)CC)n3ccnc3)cc2)cc1 (racemic) [Compound 95]	1.48	–	5.00	–
CCOc1ccc(CC(=O)Nc2ccc(C(C(CC)CC)n3cncn3)cc2)cc1C (racemic) [Compound 76]	0.588	–	>2.50	–
CC(C)C(c1ccc(NC(=O)c2ccccc2)cc1)n1ccnc1 (racemic) [Compound 166]	1.75	–	5.00	–
CC(C)C(c1ccc(NC(=O)CNc2ccccc2)cc1)n1ccnc1 (racemic) [Compound 213]	2.07	–	20.00	–
CCC(CC)C(c1ccc(NC(=O)Cc2ccc(N(C)C)cc2)cc1)n1ccnc1 (racemic) [Compound 99]	5.77	–	2.50	–
CCOc1ccc(CC(=O)Nc2ccc(C(C(CC)CC)n3ccnc3)cc2)cc1Cl (racemic) [Compound 118]	2.24	–	2.50	–
CCC(CC)C(c1ccc(NC(=O)Cc2ccc(OC)c(OC)c2)cc1)n1ccnc1 (racemic) [Compound 91]	0.935	–	2.50	–
COc1cc(CC(=O)Nc2ccc(C(C(C)C)n3ccnc3)cc2)cc(OC)c1OC (centres unmarked) [Compound 139]	1.75	–	10.00	–
CCC(CC)C(c1ccc(NC(=O)Cc2cc(C)ccc2C)cc1)n1ccnc1 (racemic) [Compound 106]	1.69	–	2.50	–
CC(C)C(c1ccc(NC(=O)c2ccncc2)cc1)n1ccnc1 (racemic) [Compound 194]	7.07	–	10.00	–
CC(C)C(c1ccc(NC(=O)C2CCOC2)cc1)n1ccnc1 (racemic) [Compound 185]	39.7	–	10.00	–
CCC(CC)C(c1ccc(NC(=O)Cc2ccc(Cl)c(OC)c2)cc1)n1cncn1 (racemic) [Compound 83]	0.162	–	>2.50	–
C/C(=C\c1ccccc1)C(=O)Nc1ccc(C(C(C)C)n2cncn2)cc1 (racemic) [Compound 154, (±)-(E)-2-methyl-N-[4-[2-methyl-1-(1H-1,2,4-triazol-1-yl)propyl]phenyl]-3-phenyl-2-propenamide]	–	4.14	–	5
CCC(CC)C(c1ccc(NC(=O)C2COc3ccccc3O2)cc1)n1ccnc1 (mixture of isomers) [Compound 23]	0.503	–	2.50	–
CCC(CC)C(c1ccc(NC(=O)C(O)c2ccc(Cl)cc2)cc1)n1cncn1 (single isomer, unassigned) [Compound 21]	2.89	–	5.00	–
CC(C)C(c1ccc(NC(=O)CSCc2ccccc2)cc1)n1ccnc1 (racemic) [Compound 210]	29	–	20.00	–
CCC(CC)C(c1ccc(NC(=O)CCCc2ccc(OC)c(OC)c2)cc1)n1cncn1 (centres unmarked) [Compound 8]	0.0937	–	>2.50	–
CCC(CC)C(c1ccc(NC(=O)C(O)c2ccc(Cl)cc2)cc1)n1cncn1 (centres unmarked) [Compound 4]	2.11	–	0.60	–
CCC(CC)C(c1ccc(NC(=O)Cc2ccc(OC)c(C)c2)cc1)n1cncn1 (racemic) [Compound 78]	0.227	–	1.25	–
CCC(CC)C(c1ccc(NC(=O)Cc2ccc(O)c(Cl)c2)cc1)n1ccnc1 (racemic) [Compound 117]	0.255	–	>2.50	–
COc1ccc(CC(=O)Nc2ccc(C(C(C)C)n3cncn3)cc2)cc1OC.O (centres unmarked) [Compound 136]	4.83	–	5.00	–
